Key:
[1] = Growth inhibition of human Hs 578T cells after 48 hrs by sulforhodamine B assay; format: functional
NCI-H460 = test: Growth inhibition of human NCI-H460 cells after 48 hrs by sulforhodamine B assay; format: functional; conditions: NCI-H460, 48 h
SK-MEL-2 = test: Growth inhibition of human SK-MEL-2 cells assessed as cell growth at 10 uM after 48 hrs by sulforhodamine B assay; format: functional; conditions: SK-MEL-2, 48 h, read-out: Activity
IGROV-1 [2] = test: Growth inhibition of human IGROV1 cells assessed as cell growth at 10 uM after 48 hrs by sulforhodamine B assay; format: functional; conditions: IGROV-1, 48 h, read-out: Activity
NCI-H522 = test: Growth inhibition of human NCI-H522 cells after 48 hrs by sulforhodamine B assay; format: functional; conditions: NCI-H522, 48 h
MCF7 = test: Growth inhibition of human MCF7 cells after 48 hrs by sulforhodamine B assay; format: functional; conditions: MCF7, 48 h
NCI-H226 = test: Growth inhibition of human NCI-H226 cells after 48 hrs by sulforhodamine B assay; format: functional; conditions: NCI-H226, 48 h
LOX IMVI [3] = test: Growth inhibition of human LOXIMVI cells assessed as cell growth at 10 uM after 48 hrs by sulforhodamine B assay; format: functional; conditions: read-out: Activity
SF-295 = test: Growth inhibition of human SF295 cells after 48 hrs by sulforhodamine B assay; format: functional, cell-based; conditions: SF-295, 48 h
SF-268 [4] = test: Growth inhibition of human SF268 cells assessed as cell growth at 10 uM after 48 hrs by sulforhodamine B assay; format: functional; conditions: SF-268, 48 h, read-out: Activity
NCI-H23 = test: Growth inhibition of human NCI-H23 cells assessed as cell growth at 10 uM after 48 hrs by sulforhodamine B assay; format: functional; conditions: NCI-H23, 48 h, read-out: Activity
LOX IMVI [5] = test: Growth inhibition of human LOXIMVI cells after 48 hrs by sulforhodamine B assay; format: functional
A498 = test: Growth inhibition of human A498 cells after 48 hrs by sulforhodamine B assay; format: functional, cell-based; conditions: A498, 48 h
IGROV-1 [6] = test: Growth inhibition of human IGROV1 cells after 48 hrs by sulforhodamine B assay; format: functional; conditions: IGROV-1, 48 h
UACC-62 = test: Growth inhibition of human UACC62 cells assessed as cell growth at 10 uM after 48 hrs by sulforhodamine B assay; format: functional; conditions: UACC-62, 48 h, read-out: Activity
SN12C = test: Growth inhibition of human SN12C cells after 48 hrs by sulforhodamine B assay; format: functional
MDA-MB-435 = test: Growth inhibition of human MDA-MB-435 cells assessed as cell growth at 10 uM after 48 hrs by sulforhodamine B assay; format: functional; conditions: MDA-MB-435, 48 h, read-out: Activity
OVCAR-5 = test: Growth inhibition of human OVCAR5 cells after 48 hrs by sulforhodamine B assay; format: functional; conditions: OVCAR-5, 48 h
SW-620 = test: Growth inhibition of human SW620 cells assessed as cell growth at 10 uM after 48 hrs by sulforhodamine B assay; format: functional; conditions: SW-620, 48 h, read-out: Activity
ACHN = test: Growth inhibition of human ACHN cells assessed as cell growth at 10 uM after 48 hrs by sulforhodamine B assay; format: functional; conditions: read-out: Activity
Malme-3M [7] = test: Growth inhibition of human MALME-3M cells assessed as cell growth at 10 uM after 48 hrs by sulforhodamine B assay; format: functional; conditions: read-out: Activity
HOP-92 = test: Growth inhibition of human HOP92 cells after 48 hrs by sulforhodamine B assay; format: functional, cell-based; conditions: HOP-92, 48 h
OVCAR-4 = test: Growth inhibition of human OVCAR4 cells after 48 hrs by sulforhodamine B assay; format: functional; conditions: OVCAR-4, 48 h
786-0 = test: Growth inhibition of human 786-0 cells assessed as cell growth at 10 uM after 48 hrs by sulforhodamine B assay; format: functional; conditions: 786-0, 48 h, read-out: Activity
SF-268 [8] = test: Growth inhibition of human SF268 cells after 48 hrs by sulforhodamine B assay; format: functional; conditions: SF-268, 48 h
Malme-3M [9] = test: Growth inhibition of human MALME-3M cells after 48 hrs by sulforhodamine B assay; format: functional
PC-3 = test: Growth inhibition of human PC3 cells after 48 hrs by sulforhodamine B assay; format: functional, cell-based; conditions: PC-3, 48 h
SK-OV-3 = test: Growth inhibition of human SKOV3 cells after 48 hrs by sulforhodamine B assay; format: functional; conditions: SK-OV-3, 48 h
UO-31 = test: Growth inhibition of human UO31 cells assessed as cell growth at 10 uM after 48 hrs by sulforhodamine B assay; format: functional; conditions: UO-31, 48 h, read-out: Activity
SNB-75 = test: Growth inhibition of human SNB75 cells after 48 hrs by sulforhodamine B assay; format: functional; conditions: SNB-75, 48 h
HCT-116 = test: Growth inhibition of human HCT116 cells assessed as cell growth at 10 uM after 48 hrs by sulforhodamine B assay; format: functional; conditions: HCT-116, 48 h, read-out: Activity
CCRF-CEM = test: Growth inhibition of human CCRF-CEM cells after 48 hrs by sulforhodamine B assay; format: functional
M14 = test: Growth inhibition of human M14 cells after 48 hrs by sulforhodamine B assay; format: functional; conditions: M14, 48 h
HOP-62 = test: Growth inhibition of human HOP62 cells after 48 hrs by sulforhodamine B assay; format: functional; conditions: HOP-62, 48 h
[10] = read-out: LC50 (the source's name)

With `O=C(Nc1cccc(-n2cc(-c3ccncc3)c(-c3ccc(Cl)c(O)c3)n2)c1)Nc1cc(C(F)(F)F)cc(C(F)(F)F)c1` the GI50 [1] was 1140 nM, the TGI [1] was 4080 nM and the CC50 [1, 10] was > 50000 nM. It also gave a GI50 (NCI-H460) of 413 nM, an LC50 (NCI-H460) of 4860 nM and a TGI (NCI-H460) of 1480 nM. It also gave a growth at 10 µM (SK-MEL-2) of -73.7%, a growth at 10 µM (IGROV-1 [2]) of 4.8% and a GI50 (NCI-H522) of 724 nM. It also gave an LC50 (concentration killing 50% of cells) (NCI-H522) of 12800 nM, a TGI (NCI-H522) of 2510 nM and a GI50 (MCF7) of 540 nM. It also gave an LC50 (MCF7) of 31500 nM, a TGI (MCF7) of 5790 nM and a GI50 (NCI-H226) of 1240 nM. For the same molecule, the TGI (NCI-H226) was 6120 nM, the CC50 (NCI-H226; [10]) was 37600 nM and the growth at 10 µM (LOX IMVI [3]) was -94.1%. It also gave a GI50 (SF-295) of 618 nM, an IC50 (SF-295) of 620 nM and a TGI (SF-295) of 1650 nM. For the same molecule, the CC50 (SF-295; [10]) was 4390 nM, the growth at 10 µM (SF-268 [4]) was -36.4% and the growth at 10 µM (NCI-H23) was -7.93%. For the same molecule, the GI50 (LOX IMVI [5]) was 712 nM, the LC50 (LOX IMVI [5]) was 2750 nM and the TGI (LOX IMVI [5]) was 1400 nM. The GI50 (A498) was 792 nM, the IC50 (A498) was 790 nM and the TGI (A498) was 4330 nM. It also gave a CC50 (A498; [10]) of 16000 nM, a GI50 (IGROV-1 [6]) of 896 nM and an LC50 (concentration killing 50% of cells) (IGROV-1 [6]) of 38200 nM. For the same molecule, the TGI (IGROV-1 [6]) was 3550 nM, the growth at 10 µM (UACC-62) was -65.6% and the GI50 (SN12C) was 1030 nM. For the same molecule, the TGI (SN12C) was 5450 nM, the CC50 (SN12C; [10]) was > 50000 nM and the growth at 10 µM (MDA-MB-435) was -31.1%. It also gave a GI50 (OVCAR-5) of 875 nM, an LC50 (concentration killing 50% of cells) (OVCAR-5) of 4700 nM and a TGI (OVCAR-5) of 2030 nM. For the same molecule, the growth at 10 µM (SW-620) was 3.32%, the growth at 10 µM (ACHN) was 8.48% and the growth at 10 µM (Malme-3M [7]) was -23%. The GI50 (HOP-92) was 344 nM, the IC50 (HOP-92) was 340 nM and the LC50 (HOP-92) was 8660 nM. For the same molecule, the TGI (HOP-92) was 1750 nM, the GI50 (OVCAR-4) was 849 nM and the LC50 (concentration killing 50% of cells) (OVCAR-4) was 23900 nM. The TGI (OVCAR-4) was 5010 nM, the growth at 10 µM (786-0) was -46.8% and the GI50 (SF-268 [8]) was 846 nM. For the same molecule, the TGI (SF-268 [8]) was 2690 nM, the CC50 (SF-268 [8]; [10]) was 20500 nM and the GI50 (Malme-3M [9]) was 939 nM. For the same molecule, the LC50 (concentration killing 50% of starting cells) (Malme-3M [9]) was 23500 nM, the TGI (Malme-3M [9]) was 3030 nM and the GI50 (PC-3) was 319 nM. The IC50 (PC-3) was 320 nM, the TGI (PC-3) was 4370 nM and the CC50 (PC-3; [10]) was > 50000 nM. For the same molecule, the GI50 (SK-OV-3) was 1350 nM, the TGI (SK-OV-3) was 3810 nM and the CC50 (SK-OV-3; [10]) was > 50000 nM. The growth at 10 µM (UO-31) was -34.4%, the GI50 (SNB-75) was 877 nM and the LC50 (lethal concentration, 50% net cell kill) (SNB-75) was 7030 nM. The TGI (SNB-75) was 2180 nM, the growth at 10 µM (HCT-116) was -59.1% and the GI50 (CCRF-CEM) was 789 nM. The LC50 (CCRF-CEM) was > 50000 nM, the TGI (CCRF-CEM) was 6780 nM and the GI50 (M14) was 607 nM. For the same molecule, the LC50 (concentration killing 50% of cells) (M14) was 6060 nM, the TGI (M14) was 1810 nM and the GI50 (HOP-62) was 964 nM. It also gave a TGI (HOP-62) of 1980 nM and a CC50 (HOP-62; [10]) of 4070 nM.
